Test results from US10034886B2, “GLP-1 receptor modulators” (Celgene International II SÀRL, priority 2014, dated 2018).
Where two headings read alike, the source gives them in different places.

Target: T1, GLP-1R (Homo sapiens, UniProt P43220)
T1 construct: host or cells: GLP-1R CRE-bla CHO-K1 cells
Assay: EC20 GLP-1(9-36) PAM cAMP assay: dose response of compound in the presence of fixed concentration of GLP-1(9-36)
Assay type: cell-based
Conditions: GLP-1R CRE-bla CHO-K1 cells, read-out: EC20 GLP-1(9-36) PAM EC50
Method in brief: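 Positive allosteric modulation read as cAMP accumulation: compound titrations (12 points) combined with an EC20 level of GLP-1(9-36) on CHO-K1 GLP-1R CRE-bla cells, IBMX present, 30 min, 37 °C, pH 7.4 buffer. Luminescence converted to cAMP via standards; non-linear fit gave EC50 and Emax.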

[1] = dose response of compound in presence of fixed concentration of GLP-1(9-36)
[2] = compound dose response with fixed concentration of GLP-1(9-36)

T1 sequence (P43220 24-463): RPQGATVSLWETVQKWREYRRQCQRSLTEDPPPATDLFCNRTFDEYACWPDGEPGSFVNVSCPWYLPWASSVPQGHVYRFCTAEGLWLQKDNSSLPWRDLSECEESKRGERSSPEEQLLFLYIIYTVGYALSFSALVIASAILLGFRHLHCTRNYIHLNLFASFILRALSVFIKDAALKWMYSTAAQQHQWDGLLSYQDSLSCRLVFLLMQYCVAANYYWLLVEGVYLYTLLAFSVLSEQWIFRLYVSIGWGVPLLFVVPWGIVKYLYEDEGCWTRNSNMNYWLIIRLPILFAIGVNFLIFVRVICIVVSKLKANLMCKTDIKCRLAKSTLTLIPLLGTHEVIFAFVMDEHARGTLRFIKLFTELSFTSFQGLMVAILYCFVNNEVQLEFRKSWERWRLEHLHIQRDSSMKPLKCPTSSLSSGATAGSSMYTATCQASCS
T1 sequence (P01275 100-127 partner limits assumed): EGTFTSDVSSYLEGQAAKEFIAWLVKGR

| SMILES | EC50 [1] | EC50 [2] |
| --- | --- | --- |
| CCCCCCCOc1ccc(-c2cnc(-c3ccc(C[C@H](NC(=O)c4ccc(C(C)(C)C)cc4)C(=O)N[C@H](C(=O)O)[C@@H](C)O)cc3)nc2)cc1 [Compound 450] | < 0.8 µM |  |
| CCC[C@H]1CC[C@H](C2CCN(c3cnc(-c4ccc(C[C@H](NC(=O)c5ccc(C(C)(C)C)s5)C(=O)N[C@H](C(=O)O)[C@@H](C)O)cc4)nc3)CC2)CC1 [Compound 1469] |  | < 0.8 µM |
| CCCCCCCOc1ccc(-c2cnc(-c3ccc(C[C@H](NC(=O)c4ccc(C(F)(F)F)s4)C(=O)N[C@H](C)C(=O)O)cc3)nc2)cc1 [Compound 815] | < 0.8 µM |  |
| CCC[C@H]1CC[C@H](C2CCN(c3cnc(-c4ccc(CC(NC(=O)c5ccc(C(C)(C)C)s5)C(=O)NS(=O)(=O)CC(C)(C)C)cc4)nc3)CC2)CC1 (some centres unmarked) [Compound 1544] |  | < 0.8 µM |
| CC(C)(C)c1ccc(C(=O)N[C@@H](Cc2ccc(-c3ncc(-c4ccc(OC5CCCC5)cc4)cn3)cc2)C(=O)NCCC(=O)O)cc1 [Compound 688] | 2.5 to 5 µM |  |
| C[C@@H](NC(=O)[C@H](Cc1ccc(-c2ncc(-c3ccc(OCc4ccccc4)c(F)c3)cn2)cc1)NC(=O)c1ccc(C(C)(C)C)s1)C(=O)O [Compound 994] | 0.8 to 2.5 µM |  |
| CCCCCCOc1ccc(-c2cnc(-c3ccc(C[C@H](NC(=O)c4ccc(C(C)(C)C)cc4)C(=O)NCCC(=O)O)cc3)nc2)cc1 [Compound 711] | 2.5 to 5 µM |  |
| CCC[C@H]1CC[C@H](C2CCN(c3cnc(-c4ccc(C[C@H](NC(=O)c5ccn(C(C)(C)C)c5)C(=O)N5CC(C(=O)O)C5)cc4)nc3)CC2)CC1 [Compound 1532] |  | < 0.8 µM |
| CCCCCCCOc1ccc(-c2cnc(-c3ccc(C[C@H](NC(=O)c4ccc(CCCC)cc4)C(=O)N4CC(C(=O)O)C4)cc3)nc2)cc1 [Compound 1115] | 0.8 to 2.5 µM |  |
| CCCCCCCOc1ccc(-c2cnc(-c3ccc(C[C@H](NC(=O)c4ccc(C(C)(C)C)s4)C(=O)NC(C(=O)O)C(O)c4cc(C)no4)cc3)nc2)cc1 (some centres unmarked) [Compound 912] | < 0.8 µM |  |
| Cc1cc(-c2ccccc2)ccc1-c1cnc(-c2ccc(C[C@H](NC(=O)c3ccc(C(C)(C)C)s3)C(=O)N[C@H](C)C(=O)O)cc2)nc1 [Compound 1131] | 0.8 to 2.5 µM |  |
| Cc1cc(C)cc(-c2ccc(-c3cnc(-c4ccc(C[C@H](NC(=O)c5ccc(C(C)(C)C)s5)C(=O)N5CC(C(=O)O)C5)cc4)nc3)c(F)c2)c1 [Compound 1191] | < 0.8 µM |  |
| C[C@@H](NC(=O)[C@H](Cc1ccc(-c2ncc(-c3ccc(-c4ccc(C(F)(F)F)cc4)c(F)c3)cn2)cc1)NC(=O)c1ccc(C(C)(C)C)s1)C(=O)O [Compound 1140] | < 0.8 µM |  |
| CCCCCCCOc1ccc(-c2cnc(-c3ccc(C[C@H](NC(=O)c4ccc(C(C)(C)C)cc4)C(=O)N[C@H](CCN)C(=O)O)cc3)nc2)cc1 [Compound 476] | 2.5 to 5 µM |  |
| CC[C@H]1CC[C@H](c2ccc(-c3cnc(-c4ccc(C[C@H](NC(=O)c5ccc(C(C)(C)C)nc5)C(=O)N5CC(C(=O)O)C5)cc4)nc3)cc2)CC1 [Compound 1163] | < 0.8 µM |  |
| C[C@@H](NC(=O)[C@H](Cc1ccc(-c2ncc(/C=C/CCCc3ccccc3)cn2)cc1)NC(=O)c1ccc(C(C)(C)C)s1)C(=O)O [Compound 1247] |  | 0.8 to 2.5 µM |
| CCCCCCCOc1ccc(-c2cnc(-c3ccc(C[C@H](NC(=O)c4ccc(C(C)(C)C)s4)C(=O)NC4(C(=O)O)CC4)cc3)nc2)cc1 [Compound 604] | 0.8 to 2.5 µM |  |
| CC(C)(C)c1ccc(C(=O)N[C@@H](Cc2ccc(-c3ncc(-c4ccc(OC(F)=C(F)F)cc4)cn3)cc2)C(=O)NCCC(=O)O)cc1 [Compound 691] | 2.5 to 5 µM |  |
| C[C@@H](NC(=O)[C@H](Cc1ccc(-c2ncc(-c3cnc(-c4ccccc4)nc3)cn2)cc1)NC(=O)c1ccc(C(C)(C)C)s1)C(=O)O [Compound 1311] |  | 2.5 to 5 µM |
| CCC[C@H]1CC[C@H](C2CCN(c3cnc(-c4ccc(C[C@H](NC(=O)c5ccc(C(C)(C)C)s5)C(=O)N[C@@H](CO)C(=O)O)cc4)nc3)CC2)CC1 [Compound 1467] |  | < 0.8 µM |
| CC(C)CCCCOc1ccc(-c2cnc(-c3ccc(C[C@H](NC(=O)c4ccc(C(C)(C)C)s4)C(=O)N4CC(C(=O)O)C4)cc3)nc2)cc1 [Compound 795] | < 0.8 µM |  |
| C[C@@H](NC(=O)[C@H](Cc1ccc(-c2ncc(-c3ccc(OCc4ccccc4)c(Cl)c3)cn2)cc1)NC(=O)c1ccc(C(C)(C)C)s1)C(=O)O [Compound 1001] | 2.5 to 5 µM |  |
| C[C@@H](NC(=O)[C@H](Cc1ccc(-c2ncc(-c3ccc(-c4ccc(C#N)cc4)cc3)cn2)cc1)NC(=O)c1ccc(C(C)(C)C)s1)C(=O)O [Compound 1291] |  | 0.8 to 2.5 µM |
| CCCCCCCOc1ccc(-c2cnc(-c3ccc(C[C@H](NC(=O)c4ccc(OC)cc4)C(=O)N4CC(C(=O)O)C4)cc3)nc2)cc1 [Compound 1109] | 0.8 to 2.5 µM |  |
| CCCCOc1ccc(-c2cnc(-c3ccc(C[C@H](NC(=O)c4ccc(C(C)(C)C)s4)C(=O)N[C@H](C)C(=O)O)cc3)nc2)cc1 [Compound 733] | 0.8 to 2.5 µM |  |

| SMILES | EC50 [1] | EC50 [2] |
| --- | --- | --- |
| CC(C)(C)c1ccc(C(=O)N[C@@H](Cc2ccc(-c3ncc(-c4ccc(OC5CC5)cc4)cn3)cc2)C(=O)N2CC(C(=O)O)C2)s1 [Compound 780] | 2.5 to 5 µM |  |
| CCC[C@H]1CC[C@H](C2CCN(c3cnc(-c4ccc(C[C@H](NC(=O)c5ccc(C(C)(C)C)s5)C(=O)N5CC(C(=O)O)C5)cc4)nc3)CC2)CC1 [Compound 1413, 1-((S)-2-(5-(tert-butyl)thiophene-2-carboxamido)-3-(4-(5-(4-((1s,4r)-4-propylcyclohexyl)piperidin-1-yl)pyrimidin-2-yl)phenyl)propanoyl)azetidine-3-carboxylic acid] |  | < 0.8 µM |
| CCCCCCCOc1ccc(-c2cnc(-c3ccc(C[C@H](NC(=O)c4ccc(C(C)(C)C#N)cc4)C(=O)N[C@H](C)C(=O)O)cc3)nc2)cc1 [Compound 835] | 2.5 to 5 µM |  |
| CCC(CC)Oc1ccc(-c2cnc(-c3ccc(C[C@H](NC(=O)c4ccc(C(C)(C)C)s4)C(=O)NC(C(=O)O)C(O)c4ccccc4)cc3)nc2)cc1 (some centres unmarked) [Compound 935] | 2.5 to 5 µM |  |
| CC(C)(C)c1ccc(C(=O)NC(Cc2ccc(-c3ncc(N4CCC5CCCCC5C4)cn3)cc2)C(=O)N2CC(C(=O)O)C2)s1 (centres unmarked) [Compound 1421] |  | < 0.8 µM |
| CCCCCCCOc1ccc(-c2cnc(-c3ccc(C[C@H](NC(=O)c4ccc(C(C)(C)C)s4)C(=O)N4CC(C(=O)NS(C)(=O)=O)C4)cc3)nc2)cc1 [Compound 650] | < 0.8 µM |  |
| CC(C)(C)c1ccc(C(=O)N[C@@H](Cc2ccc(-c3ncc(-c4ccc(OCC5CCCC5)cc4)cn3)cc2)C(=O)NC(C(=O)O)C(O)c2ccccc2)s1 (some centres unmarked) [Compound 940] | 0.8 to 2.5 µM |  |
| CCCCCCCOc1ccc(-c2cnc(-c3ccc(C[C@H](NC(=O)c4ccc(CCC)s4)C(=O)N4CC[C@H](C(=O)O)C4)cc3)nc2)cc1 [Compound 864] | 0.8 to 2.5 µM |  |
| CCCCCCCOc1ccc(-c2cnc(-c3ccc(C[C@H](NC(=O)c4ccc(C(C)(C)C)s4)C(=O)NCCCN(C)C)cc3)nc2)cc1 [Compound 962] | 0.8 to 2.5 µM |  |
| CCCCCCCOc1ccc(-c2cnc(-c3ccc(C[C@H](NC(=O)c4ccc(C(C)(C)C)s4)C(=O)N[C@@H](CCCN)C(=O)O)cc3)nc2)cc1 [Compound 393] | 0.8 to 2.5 µM |  |
| CC[C@H]1CC[C@H](c2ccc(-c3cnc(-c4ccc(C[C@H](NC(=O)c5cnn(C(C)(C)C)c5)C(=O)O)cc4)nc3)cc2)CC1 [Compound 1378] |  | < 0.8 µM |
| CCCCCCCOc1ccc(-c2cnc(-c3ccc(C[C@H](NC(=O)c4ccc(C(C)(C)C)cc4)C(=O)N4C[C@@H](O)C[C@H]4C(=O)O)cc3)nc2)cc1 [Compound 587] | < 0.8 µM |  |
| CCCc1ccc(-c2ccc(-c3cnc(-c4ccc(C[C@H](NC(=O)c5ccc(C6CC6)s5)C(=O)N5CC(C(=O)O)C5)cc4)nc3)c(F)c2)cc1 [Compound 1406] |  | < 0.8 µM |
| CCCCCCCOc1ccc(-c2cnc(-c3ccc(C[C@H](NC(=O)c4ccc(C(C)(C)C)s4)C(=O)N[C@H](C(=O)O)C(C)(C)C)cc3)nc2)cc1 [Compound 620] | 5 to 10 µM |  |
| CCCCCCCOc1ccc(-c2cnc(-c3ccc(C[C@H](NC(=O)c4ccc(C(C)(C)C)cc4)C(=O)NCCC(=O)O)cc3)nc2)cc1CC [Compound 703] | < 0.8 µM |  |
| CCCCCCCOc1ccc(-c2cnc(-c3ccc(C[C@H](NC(=O)c4ccc(CCCC)cc4)C(=O)N[C@H](C)C(=O)O)cc3)nc2)cc1 [Compound 819] | 2.5 to 5 µM |  |
| CCc1ccc(C(=O)N[C@@H](Cc2ccc(-c3ncc(-c4ccc([C@H]5CC[C@H](CC)CC5)cc4)cn3)cc2)C(=O)N2CC(C(=O)O)C2)cc1 [Compound 1168] | < 0.8 µM |  |
| CCCCCCCOc1ccc(-c2cnc(-c3ccc(C[C@H](NC(=O)c4cc(C)cs4)C(=O)O)cc3)nc2)cc1 [Compound 470] | < 0.8 µM |  |
| CCCCCCCOc1ccc(-c2cnc(-c3ccc(C[C@H](NC(=O)c4ccc(C(C)(C)C)s4)C(=O)NCC4CCNC4)cc3)nc2)cc1 (some centres unmarked) [Compound 390] | 0.8 to 2.5 µM |  |
| CC(C)(C)c1ccc(-c2cnc(-c3ccc(C[C@H](NC(=O)c4ccc(C(C)(C)C)s4)C(=O)N4CC[C@H](C(=O)O)C4)cc3)nc2)cc1 [Compound 768] | 0.8 to 2.5 µM |  |
| C[C@@H](NC(=O)[C@H](Cc1ccc(-c2ncc(-c3ccc(C4CC4)cc3)cn2)cc1)NC(=O)c1ccc(C(C)(C)C)s1)C(=O)O [Compound 1306] |  | 0.8 to 2.5 µM |
| CCCCCCCOc1ccc(-c2cnc(-c3ccc(C[C@H](NC(=O)c4ccc(C(C)(C)C)c(OC)c4)C(=O)N4CC[C@H](C(=O)O)C4)cc3)nc2)cc1 [Compound 862] | 0.8 to 2.5 µM |  |
| CCCc1ccc(-c2ccc(-c3cnc(-c4ccc(C[C@H](NC(=O)c5ccc(C(C)(C)C)s5)C(=O)N[C@H](C)C(=O)O)cc4)nc3)cc2)cc1 [Compound 1136] | 0.8 to 2.5 µM |  |
| CC(C)CCCOc1ccc(-c2cnc(-c3ccc(C[C@H](NC(=O)c4ccc(C(C)(C)C)s4)C(=O)N[C@H](C)C(=O)O)cc3)nc2)cc1 [Compound 771] | 0.8 to 2.5 µM |  |
| CC(C)(C)c1ccc(C(=O)N[C@@H](Cc2ccc(-c3ncc(N4CCC(c5cccc(Br)c5)CC4)cn3)cc2)C(=O)N2CC(C(=O)O)C2)s1 [Compound 1488] |  | 0.8 to 2.5 µM |
